According to patent publication US10638756B2, “Molecules having pesticidal utility, and intermediates, compositions, and processes, related thereto” (Dow AgroSciences LLC, priority 2017, dated 2020):

How the values were obtained:
Assay type in all cases: in vivo
[1] = test system: Beet Armyworm (Spodoptera exigua); experiment: Bioassay on Beet Armyworm (BAW), 128-well diet tray assay; settings: Spodoptera exigua, 168 h; 50 μg/cm^2 on artificial diet, second instar larvae, five to seven days; read-out: BAW % Control (or Mortality) rating
[2] = test system: Cabbage Looper (Trichoplusia ni); experiment: Bioassay on Cabbage Looper (CL), 128-well diet tray assay; settings: 168 h, 50 μg/cm^2 on artificial diet, second instar larvae, five to seven days, read-out: CL % Control (or Mortality) rating
Summary of the method: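 Percent mortality, averaged across eight replicate wells, after second-instar larvae (1–5 per well) fed for five to seven days on diet dosed at 50 μg/cm^2. Compound was applied in acetone-water 90:10 and dried; trays kept vented at 25° C under 14:10 photoperiod.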

[3] = test system: Yellow Fever Mosquito (Aedes aegypti); settings: about 1 day-old larvae, 3 days, scored on mortality
Description: Certain molecules disclosed in this document were tested against YFM using procedures described in the following paragraph. In the reporting of the results, the “GPA & YFM Rating Table” was used (See Table Section).
Master plates containing 400 μg of a molecule dissolved in 100 μL of dimethyl sulfoxide (DMSO) (equivalent to a 4000 ppm solution) are used. A master plate of assembled molecules contains 15 μL per well. To this plate, 135 μL of a 90:10 water/acetone mixture is added to each well. A robot (Biomek® NXP Laboratory Automation Workstation) is programmed to dispense 15 μL aspirations from the master plate into an empty 96-well shallow plate (“daughter” plate). There are 6 reps (“daughter” plates) created per master. The created “daughter” plates are then immediately infested with YFM larvae.
The day before plates are to be treated, mosquito eggs are placed in Millipore water containing liver powder to begin hatching (4 g. into 400 mL). After the “daughter” plates are created using the robot, they are infested with 220 μL of the liver powder/larval mosquito mixture (about 1 day-old larvae). After plates are infested with mosquito larvae, a non-evaporative lid is used to cover the plate to reduce drying. Plates are held at room temperature for 3 days prior to grading. After 3 days, each well is observed and scored based on mortality. The results are indicated in the table entitled “Table ABC: Biological Results” (See Table Section).

SMILES | mortality at 50 µg/cm2 [1] [%] | mortality at 50 µg/cm2 [2] [%] | YFM % Control (or Mortality) rating [3]
COc1ccc(NNC(=O)c2ccc(/C(F)=C/C(c3cc(Cl)c(Cl)c(Cl)c3)C(F)(F)F)cc2C(F)(F)F)cc1 (stereo not drawn) [F126, (Z)—N′-(4-Methoxyphenyl)-4-(1,4,4,4-tetrafluoro-3-(3,4,5-trichlorophenyl)but-1-en-1-yl)-2-(trifluoromethyl)benzohydrazide] | 50 to 100 | 50 to 100 | A (80-100)
O=C(NNCc1ccccc1)c1ccc(/C(F)=C/C(c2cc(Cl)c(Cl)c(Cl)c2)C(F)(F)F)cc1C(F)(F)F (stereo not drawn) [F54, (Z)—N′-Benzyl-4-(1,4,4,4-tetrafluoro-3-(3,4,5-trichlorophenyl)but-1-en-1-yl)-2-(trifluoromethyl)benzohydrazide] | 50 to 100 | 50 to 100 | A (80-100)
O=C(NNc1cccc(C(F)(F)F)c1)c1ccc(/C(F)=C/C(c2cc(Cl)c(Cl)c(Cl)c2)C(F)(F)F)cc1C(F)(F)F (stereo not drawn) [F3, (Z)-4-(1,4,4,4-Tetrafluoro-3-(3,4,5-trichlorophenyl)but-1-en-1-yl)-2-(trifluoromethyl)-N′-(3-(trifluoromethyl)phenyl)benzohydrazide] | 50 to 100 | 50 to 100 | A (80-100)
C=CCN(NC(=O)c1ccc(/C(F)=C/C(c2cc(Cl)c(Cl)c(Cl)c2)C(F)(F)F)cc1C(F)(F)F)c1ncccn1 (stereo not drawn) [F152, (Z)—N′-Allyl-N′-(pyrimidin-2-yl)-4-(1,4,4,4-tetrafluoro-3-(3,4,5-trichlorophenyl)but-1-en-1-yl)-2-(trifluoromethyl)benzohydrazide] | 50 to 100 | 50 to 100 | A (80-100)
CN(NC(=O)c1ccc(/C(F)=C/C(c2cc(Cl)c(Cl)c(Cl)c2)C(F)(F)F)cc1C(F)(F)F)c1nccs1 (stereo not drawn) [F158, (Z)—N′-methyl-4-(1,4,4,4-tetrafluoro-3-(3,4,5-trichlorophenyl)but-1-en-1-yl)-N′-(thiazol-2-yl)-2-(trifluoromethyl)benzohydrazide] | 50 to 100 | 50 to 100 | A (80-100)
O=C(NNc1nnn[nH]1)c1ccc(/C(F)=C/C(c2cc(Cl)c(Cl)c(Cl)c2)C(F)(F)F)cc1C(F)(F)F (stereo not drawn) [F95, (Z)-4-(1,4,4,4-Tetrafluoro-3-(3,4,5-trichlorophenyl)but-1-en-1-yl)-N′-(1H-tetrazol-5-yl)-2-(trifluoromethyl)benzohydrazide] | 50 to 100 | 50 to 100 | A (80-100)
N#Cc1ccc(/C(F)=C/C(c2cc(Cl)c(Cl)c(Cl)c2)C(F)(F)F)cc1C(F)(F)F (stereo not drawn) [C25, (Z)-4-(1,4,4,4-Tetrafluoro-3-(3,4,5-trichlorophenyl)but-1-en-1-yl)-2-(trifluoromethyl)benzonitrile] | 50 to 100 | 50 to 100 | A (80-100)
CN(NC(=O)c1ccc(/C(F)=C/C(c2cc(Cl)c(Cl)c(Cl)c2)C(F)(F)F)cc1C(F)(F)F)c1ccc(C#N)cn1 (stereo not drawn) [F82, (Z)—N′-(5-Cyanopyridin-2-yl)-N′-methyl-4-(1,4,4,4-tetrafluoro-3-(3,4,5-trichlorophenyl)but-1-en-1-yl)-2-(trifluoromethyl)benzohydrazide] | 50 to 100 | 50 to 100 | A (80-100)
C#CCN(NC(=O)c1ccc(/C(F)=C/C(c2cc(Cl)c(Cl)c(Cl)c2)C(F)(F)F)cc1C)c1ncccn1 (stereo not drawn) [F148, (Z)-2-Methyl-N′-(prop-2-yn-1-yl)-N′-(pyrimidin-2-yl)-4-(1,4,4,4-tetrafluoro-3-(3,4,5-trichlorophenyl)but-1-en-1-yl)benzohydrazide] | 50 to 100 | 50 to 100 | A (80-100)
